Measurements reported in patent US20250197374A1, “WEE1 DEGRADING COMPOUNDS AND USES THEREOF” (BRISTOL-MYERS SQUIBB COMPANY, priority 2023, published 2025).

What was measured:
Assay type in all cases: cell-based
MKN45 cells = assay: MKN45 cell proliferation assay (Cell-Titer-Glo, 120 hr); conditions: for EC50: Homo sapiens, MKN-45, 120 h, read-out: MKN45 Cell Prolif. 120 hr EC50; for MKN45 Cell Prolif. 120 hr YMin (%): minimal percent of DMSO control observed
Summary of the method: (§1)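 MKN45 (400/well) and MDA-MB-231 (800/well) cells in RPMI with 10% FBS were exposed to 10-point half-log doses from 1 or 10 uM (0.1% DMSO) for 120 h at 37 °C. Viability was read by CellTiter-Glo luminescence. EC50 came from blank-subtracted, %DMSO four-parameter fits, with Ymin-obs as the lowest %DMSO observed.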

MDA-MB-231 cells = assay: MDA-MB-231 cell proliferation assay (Cell-Titer-Glo, 120 hr); conditions: for EC50: Homo sapiens, MDA-MB-231, 120 h, read-out: MDA-MB 231 Cell Prolif. 120 hr EC50; for MDA-MB 231 Cell Prolif. 120 hr YMin (%): minimal percent of DMSO control observed
Summary of the method: as §1

WEE1 = molecular target: T1, WEE1 (Homo sapiens, UniProt P30291+Q96SW2); assay: WEE1-ePL degradation assay (293T-LentiX, InCELL Hunter luminescence, 4 hr); conditions: for DC50: LentiX-HEK293T cells expressing WEE1-ePL, 4 hr incubation, read-out: 293T-LentiX WEE1-ePL Degradation 4 hr EC50; for 293T-LentiX WEE1-ePL Degradation 4 hr YMin (%): lower limit of fit, % of DMSO control signal remaining
T1 construct: C-terminal ePL-tagged (DiscoverX, Fremont, CA) full-length WEE1 expression construct; expressed in transfected cells; host or cells: LentiX-HEK293T (Invitrogen), lentivirally transduced; the cells also over-express GSPT1-GN
T1 sequence (P30291 whole entry): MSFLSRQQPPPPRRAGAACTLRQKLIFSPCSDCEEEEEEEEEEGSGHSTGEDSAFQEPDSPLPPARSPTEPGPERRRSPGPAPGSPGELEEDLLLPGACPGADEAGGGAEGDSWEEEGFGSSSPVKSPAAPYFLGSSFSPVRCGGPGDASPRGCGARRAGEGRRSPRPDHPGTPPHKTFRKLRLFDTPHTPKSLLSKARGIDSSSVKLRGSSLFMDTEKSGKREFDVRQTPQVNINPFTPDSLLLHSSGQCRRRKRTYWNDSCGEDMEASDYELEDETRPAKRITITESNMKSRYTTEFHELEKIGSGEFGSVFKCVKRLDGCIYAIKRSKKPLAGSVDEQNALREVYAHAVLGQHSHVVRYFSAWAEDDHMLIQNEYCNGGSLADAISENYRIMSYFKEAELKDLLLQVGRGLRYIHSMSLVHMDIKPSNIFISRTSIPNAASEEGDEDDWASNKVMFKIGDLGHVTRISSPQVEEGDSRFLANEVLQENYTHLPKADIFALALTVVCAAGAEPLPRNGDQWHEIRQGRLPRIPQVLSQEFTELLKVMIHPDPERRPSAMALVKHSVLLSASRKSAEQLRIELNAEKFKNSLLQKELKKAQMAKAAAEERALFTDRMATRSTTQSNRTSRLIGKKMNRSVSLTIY
T1 sequence (Q96SW2 whole entry): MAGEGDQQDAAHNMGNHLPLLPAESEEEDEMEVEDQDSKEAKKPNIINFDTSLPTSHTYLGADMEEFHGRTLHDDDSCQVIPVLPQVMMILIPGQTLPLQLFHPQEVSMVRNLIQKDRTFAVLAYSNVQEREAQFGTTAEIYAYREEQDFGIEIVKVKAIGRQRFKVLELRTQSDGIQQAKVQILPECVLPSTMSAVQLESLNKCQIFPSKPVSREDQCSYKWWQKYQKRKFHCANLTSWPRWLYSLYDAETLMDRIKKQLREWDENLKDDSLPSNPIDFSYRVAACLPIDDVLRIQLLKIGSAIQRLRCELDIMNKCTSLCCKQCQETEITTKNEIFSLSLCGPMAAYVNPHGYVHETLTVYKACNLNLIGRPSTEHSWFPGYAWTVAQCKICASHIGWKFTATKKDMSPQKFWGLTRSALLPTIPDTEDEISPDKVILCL
T1 sequence (Q16531 whole entry partner): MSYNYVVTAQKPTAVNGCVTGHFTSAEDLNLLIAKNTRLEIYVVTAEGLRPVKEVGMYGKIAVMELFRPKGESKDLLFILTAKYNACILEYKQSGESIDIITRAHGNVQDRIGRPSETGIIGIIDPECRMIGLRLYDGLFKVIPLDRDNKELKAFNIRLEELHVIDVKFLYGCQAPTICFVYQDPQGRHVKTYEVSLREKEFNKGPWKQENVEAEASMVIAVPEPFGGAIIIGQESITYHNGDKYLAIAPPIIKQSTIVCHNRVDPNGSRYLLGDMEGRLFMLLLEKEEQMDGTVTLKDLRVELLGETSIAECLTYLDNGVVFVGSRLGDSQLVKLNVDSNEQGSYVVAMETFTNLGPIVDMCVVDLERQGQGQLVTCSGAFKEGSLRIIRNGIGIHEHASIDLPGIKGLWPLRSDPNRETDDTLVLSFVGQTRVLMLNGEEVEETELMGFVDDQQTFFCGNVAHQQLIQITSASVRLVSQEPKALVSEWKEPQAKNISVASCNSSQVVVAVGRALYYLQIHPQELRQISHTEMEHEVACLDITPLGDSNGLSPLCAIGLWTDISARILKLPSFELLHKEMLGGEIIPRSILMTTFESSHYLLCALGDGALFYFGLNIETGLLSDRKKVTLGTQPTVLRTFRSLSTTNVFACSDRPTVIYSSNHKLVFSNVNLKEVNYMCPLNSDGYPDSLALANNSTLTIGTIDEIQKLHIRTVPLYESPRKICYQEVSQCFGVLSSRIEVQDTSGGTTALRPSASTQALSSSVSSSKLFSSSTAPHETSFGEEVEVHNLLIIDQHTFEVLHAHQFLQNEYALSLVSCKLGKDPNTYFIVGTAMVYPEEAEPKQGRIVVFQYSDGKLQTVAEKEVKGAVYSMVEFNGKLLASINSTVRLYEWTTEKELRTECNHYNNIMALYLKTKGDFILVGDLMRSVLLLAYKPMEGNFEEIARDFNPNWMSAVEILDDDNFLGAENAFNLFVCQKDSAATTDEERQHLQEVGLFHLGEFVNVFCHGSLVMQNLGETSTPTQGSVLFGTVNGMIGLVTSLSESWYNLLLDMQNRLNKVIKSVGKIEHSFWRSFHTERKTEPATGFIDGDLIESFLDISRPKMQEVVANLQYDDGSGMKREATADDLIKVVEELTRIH
Summary of the method: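 LentiX-HEK293T cells expressing C-terminally ePL-tagged full-length WEE1 plus non-degradable GSPT1-GN (G575N, N-terminal 158 aa truncated). Treated 4 h at 37 °C with a 10-point, 3-fold series from 1 or 10 µM, then read by InCELL Hunter luminescence. EC50 from four-parameter logistic fit, Ymax set by DMSO control.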

Row | Compound | EC50 (MKN45 cells) | MKN45 Cell Prolif. 120 hr YMin (%) (MKN45 cells) | EC50 (MDA-MB-231 cells) | MDA-MB 231 Cell Prolif. 120 hr YMin (%) (MDA-MB-231 cells) | DC50 (WEE1) | 293T-LentiX WEE1-ePL Degradation 4 hr YMin (%) (WEE1)
1 | COC[C@@H]1CN(Cc2cc(F)c3nc(COC4CCOCC4)ccc3c2)C[C@H]1Oc1ccc2c(c1)CN([C@H]1CCC(=O)NC1=O)C2=O [Example 33, (3S)-3-(5-{[(3S,4S)-1-({8-fluoro-2-[(oxan-4-yloxy)methyl]quinolin-6-yl}methyl)-4-(methoxymethyl)pyrrolidin-3-yl]oxy}-1-oxo-2,3-dihydro-1H-isoindol-2-yl)piperidine-2,6-dione] | 1 nM | 9.7% | 28 nM | 28.6% | 1 nM | 29.3%
2 | COC[C@@H]1CN(Cc2cc(F)c3nc(COC4CCN(C)CC4)ncc3c2)C[C@H]1Oc1ccc2c(c1)CN([C@H]1CCC(=O)NC1=O)C2=O [Example 43, (3S)-3-(5-{[(3S,4S)-1-[(8-fluoro-2-{[(1-methylpiperidin-4-yl)oxy]methyl}quinazolin-6-yl)methyl]-4-(methoxymethyl)pyrrolidin-3-yl]oxy}-1-oxo-2,3-dihydro-1H-isoindol-2-yl)piperidine-2,6-dione] | 38 nM | 10.0% | 520 nM | 51.3% | 133 nM | 34.3%
3 | COC[C@@H]1CN(Cc2cc(F)c3nc(C45C6C7C4C4C5C6C74C(C)(C)O)ccc3c2)C[C@H]1Oc1ccc2c(c1)CN([C@H]1CCC(=O)NC1=O)C2=O (stereo partly drawn) [Example 121, (S)-3-(5-(((3S,4S)-1-((8-fluoro-2-(4-(2-hydroxypropan-2-yl)cuban-1-yl)quinolin-6-yl)methyl)-4-(methoxymethyl)pyrrolidin-3-yl)oxy)-1-oxoisoindolin-2-yl)piperidine-2,6-dione] |  | 7.5% | 26 nM | 13.2% |  | 18.7%
4 | Cc1cc([C@H]2CN(Cc3cc(F)c4nc(C5CCOCC5)ccc4c3)C[C@@H]2Oc2ccc3c(c2)CN([C@H]2CCC(=O)NC2=O)C3=O)cc(C)n1 (relative stereo) [Example 147, (S)-3-(5-(((3R*,4S*)-4-(2,6-dimethylpyridin-4-yl)-1-((8-fluoro-2-(tetrahydro-2H-pyran-4-yl)quinolin-6-yl)methyl)pyrrolidin-3-yl)oxy)-1-oxoisoindolin-2-yl)piperidine-2,6-dione] | 308 nM | 92.2% | 443 nM | 79.7% |  | 93.2%
